From ChEMBL document CHEMBL2380255, “Dual targeting of adenosine A(2A) receptors and monoamine oxidase B by 4H-3,1-benzothiazin-4-ones” (J Med Chem, 2013)
Activity calls are given as the source filed them. The rule behind the calls is not given here.

Tests used:
[1] = Selectivity ratio of IC50 for MAO-B in mitochondria-enriched Sprague-Dawley rat liver fractions to IC50 for recombinant human MAO-B
[2] = biological target: T1, Amine oxidase [flavin-containing] B (Homo sapiens, UniProt P27338); assay: Inhibition of recombinant human MAO-B expressed in baculovirus-infected insect cells using p-tyramine as substrate incubated for 30 mins prior to substrate addition measured for 45 mins by amplex red reagent-based microplate fluorescence reader analysis; format: cell-based
T1 sequence (P27338 whole entry): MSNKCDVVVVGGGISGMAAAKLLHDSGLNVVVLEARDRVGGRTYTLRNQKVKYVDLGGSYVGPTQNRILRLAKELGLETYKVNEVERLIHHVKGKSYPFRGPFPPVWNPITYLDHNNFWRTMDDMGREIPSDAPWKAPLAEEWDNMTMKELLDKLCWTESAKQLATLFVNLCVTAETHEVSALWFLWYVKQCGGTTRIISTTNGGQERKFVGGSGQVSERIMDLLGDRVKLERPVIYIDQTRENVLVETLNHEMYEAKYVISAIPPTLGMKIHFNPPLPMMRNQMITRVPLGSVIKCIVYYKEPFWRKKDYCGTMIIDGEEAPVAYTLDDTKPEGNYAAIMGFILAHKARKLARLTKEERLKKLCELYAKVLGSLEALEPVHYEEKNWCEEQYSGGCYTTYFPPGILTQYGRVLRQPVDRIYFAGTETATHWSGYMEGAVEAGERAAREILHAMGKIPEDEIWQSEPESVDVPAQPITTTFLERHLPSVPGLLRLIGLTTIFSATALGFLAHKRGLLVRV

[3] = biological target: T2, Amine oxidase [flavin-containing] B (Rattus norvegicus, UniProt P19643); assay: Inhibition of MAO-B in mitochondria-enriched Sprague-Dawley rat liver fractions using p-tyramine as substrate incubated for 30 mins prior to substrate addition measured for 45 mins by amplex red reagent-based microplate fluorescence reader analysis
T2 sequence (P19643 whole entry): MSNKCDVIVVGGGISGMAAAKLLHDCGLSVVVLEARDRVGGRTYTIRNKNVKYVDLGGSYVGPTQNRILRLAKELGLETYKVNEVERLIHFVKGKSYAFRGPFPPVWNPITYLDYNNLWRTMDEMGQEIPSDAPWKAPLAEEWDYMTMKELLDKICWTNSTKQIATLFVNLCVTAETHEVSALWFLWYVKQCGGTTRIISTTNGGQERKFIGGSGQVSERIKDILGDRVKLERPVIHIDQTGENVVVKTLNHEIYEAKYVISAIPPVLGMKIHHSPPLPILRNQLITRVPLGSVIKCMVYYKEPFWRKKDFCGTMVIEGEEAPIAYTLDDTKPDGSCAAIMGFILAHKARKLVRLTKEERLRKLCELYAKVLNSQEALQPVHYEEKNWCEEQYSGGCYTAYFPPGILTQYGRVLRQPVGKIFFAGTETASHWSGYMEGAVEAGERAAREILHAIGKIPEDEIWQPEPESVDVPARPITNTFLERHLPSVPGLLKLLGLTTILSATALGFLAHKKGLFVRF

[4] = Selectivity ratio of Ki for human recombinant adenosine A1 receptor to Ki for adenosine A1 receptor in rat brain cortical membranes; format: cell membranes; conditions: Membrane
Adenosine receptor A3 [5] = biological target: T3, Adenosine receptor A3 (Homo sapiens, UniProt P0DMS8); assay: Displacement of [3H]PSB-11 from human recombinant adenosine A3 receptor expressed in CHO cells after 60 mins by liquid scintillation counting analysis; format: cell-based
T3 sequence (P0DMS8 whole entry): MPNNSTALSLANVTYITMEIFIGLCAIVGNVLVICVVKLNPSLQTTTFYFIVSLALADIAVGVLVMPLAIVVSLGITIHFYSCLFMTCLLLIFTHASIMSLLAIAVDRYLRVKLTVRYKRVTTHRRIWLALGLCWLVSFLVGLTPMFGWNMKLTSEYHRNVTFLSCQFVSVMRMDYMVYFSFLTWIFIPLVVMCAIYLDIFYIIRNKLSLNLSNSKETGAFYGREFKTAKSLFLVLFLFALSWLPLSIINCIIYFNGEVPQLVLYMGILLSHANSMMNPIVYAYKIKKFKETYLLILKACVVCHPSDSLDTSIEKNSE

Adenosine receptor A2b = biological target: T4, Adenosine receptor A2b (Homo sapiens, UniProt P29275); assay: Displacement of [3H]PSB-603 from human recombinant adenosine A2B receptor expressed in CHO cells after 75 mins by liquid scintillation counting analysis; format: cell-based
T4 sequence (P29275 whole entry): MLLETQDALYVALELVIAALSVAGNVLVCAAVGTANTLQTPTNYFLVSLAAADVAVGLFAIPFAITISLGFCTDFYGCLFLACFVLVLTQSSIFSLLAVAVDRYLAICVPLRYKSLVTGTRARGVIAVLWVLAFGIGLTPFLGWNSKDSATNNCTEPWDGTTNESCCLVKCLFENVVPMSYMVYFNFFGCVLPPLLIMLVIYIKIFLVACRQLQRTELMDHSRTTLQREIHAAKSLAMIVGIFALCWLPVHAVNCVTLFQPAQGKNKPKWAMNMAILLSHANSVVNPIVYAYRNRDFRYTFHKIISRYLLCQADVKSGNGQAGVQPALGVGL

Adenosine receptor A2a [6] = biological target: T5, Adenosine receptor A2a (Homo sapiens, UniProt P29274); assay: Displacement of [3H]MSX2 from human recombinant adenosine A2A receptor expressed in CHO cells after 30 mins by liquid scintillation counting analysis; format: cell-based
Adenosine receptor A1 [7] = biological target: T6, Adenosine receptor A1 (Homo sapiens, UniProt P30542); assay: Displacement of [3H]CCPA from human recombinant adenosine A1 receptor expressed in CHO cells after 90 mins by liquid scintillation counting analysis; format: cell-based
T6 sequence (P30542 whole entry): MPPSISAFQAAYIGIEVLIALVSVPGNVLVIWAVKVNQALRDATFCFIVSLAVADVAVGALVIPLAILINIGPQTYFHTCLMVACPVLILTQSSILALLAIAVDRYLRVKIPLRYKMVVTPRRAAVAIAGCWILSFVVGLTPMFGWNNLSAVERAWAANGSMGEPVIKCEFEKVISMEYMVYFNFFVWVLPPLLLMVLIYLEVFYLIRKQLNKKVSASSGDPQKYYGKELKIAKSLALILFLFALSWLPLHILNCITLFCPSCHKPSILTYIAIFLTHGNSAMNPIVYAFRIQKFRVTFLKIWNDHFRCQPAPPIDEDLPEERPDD

Adenosine receptor A2a [8] = biological target: Adenosine receptor A2a (Rattus norvegicus, UniProt P30543); assay: Displacement of [3H]MSX2 from adenosine A2A receptor in rat brain striatal membranes after 30 mins by liquid scintillation counting analysis; format: cell membranes, Membrane
Adenosine receptor A1 [9] = biological target: T7, Adenosine receptor A1 (Rattus norvegicus, UniProt P25099); assay: Displacement of [3H]CCPA from adenosine A1 receptor in rat brain cortical membranes after 90 mins by liquid scintillation counting analysis; format: cell membranes, Membrane
T7 sequence (P25099 whole entry): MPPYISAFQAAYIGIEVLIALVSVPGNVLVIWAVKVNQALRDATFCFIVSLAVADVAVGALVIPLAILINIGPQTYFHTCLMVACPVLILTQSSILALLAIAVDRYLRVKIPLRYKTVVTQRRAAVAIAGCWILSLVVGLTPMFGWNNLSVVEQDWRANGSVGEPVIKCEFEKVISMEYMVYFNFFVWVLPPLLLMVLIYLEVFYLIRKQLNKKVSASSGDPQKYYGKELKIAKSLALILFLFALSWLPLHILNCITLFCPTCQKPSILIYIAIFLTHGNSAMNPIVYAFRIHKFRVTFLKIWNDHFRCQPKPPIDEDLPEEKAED

[10] = biological target: T1, Amine oxidase [flavin-containing] B; assay: Reversible inhibition of human MAO-B using p-tyramine as substrate at IC80 incubated for 22 mins followed by substrate addition measured for 5 hrs by fluorescence assay
Homo sapiens [11] = species: Homo sapiens; assay: Selectivity ratio of Ki for human recombinant adenosine A1 receptor to Ki for human recombinant adenosine A2A receptor
Homo sapiens [12] = species: Homo sapiens; assay: Selectivity ratio of Ki for human recombinant adenosine A3 receptor to Ki for human recombinant adenosine A2A receptor
Homo sapiens [13] = species: Homo sapiens; assay: Selectivity ratio of Ki for human recombinant adenosine A2B receptor to Ki for human recombinant adenosine A2A receptor
[14] = biological target: T1, Amine oxidase [flavin-containing] B; assay: Ratio of selegiline IC50 to compound IC50 for recombinant human MAO-B
[15] = Stability of the compound in DMSO at 1 mg/ml under daylight condition at 20 degC after 24 hrs by LC-MS analysis; format: physicochemical
[16] = Stability of the compound in DMSO at 1 mg/ml under daylight condition at 20 degC after 7 days by LC-MS analysis; format: physicochemical; conditions: 168 h
[17] = biological target: T1, Amine oxidase [flavin-containing] B; assay: Competitive inhibition of human MAO-B using p-tyramine as substrate at 50 to 300 nM using p-tyramine as substrate incubated for 30 mins prior to substrate addition measured for 45 mins by Lineweaver-burk plot analysis; conditions: 0.75 h
Adenosine receptor A2a [18] = biological target: T5, Adenosine receptor A2a; assay: Antagonist activity at human adenosine A2A receptor expressed in CHO cells assessed as decrease in NECA-induced cAMP accumulation up to 20 uM incubated for 10 mins followed by NECA induction for 15 mins measured after 60 mins by liquid scintillation counting analysis in presence of [3H]cAMP; format: functional, cell-based
Adenosine receptor A2a [19] = biological target: T5, Adenosine receptor A2a; assay: Antagonist activity at human adenosine A2A receptor expressed in CHO cells assessed as decrease in cAMP accumulation up to 20 uM preincubated for 10 mins measured after 60 mins by liquid scintillation counting analysis in presence of [3H]cAMP; format: functional, cell-based
[20] = Selectivity ratio of Ki for adenosine A2A receptor in rat brain striatal membranes to Ki for human recombinant adenosine A2A receptor; format: cell membranes; conditions: Membrane
Adenosine receptor A1 [21] = biological target: T6, Adenosine receptor A1; assay: Displacement of [3H]CCPA from human recombinant adenosine A1 receptor expressed in CHO cells
Adenosine receptor A3 [22] = biological target: T3, Adenosine receptor A3; assay: Displacement of [3H]PSB-11 from human recombinant adenosine A3 receptor expressed in CHO cells; format: cell-based

Adenosine receptor A2a (Rattus norvegicus, UniProt P30543), sequence (P30543 whole entry): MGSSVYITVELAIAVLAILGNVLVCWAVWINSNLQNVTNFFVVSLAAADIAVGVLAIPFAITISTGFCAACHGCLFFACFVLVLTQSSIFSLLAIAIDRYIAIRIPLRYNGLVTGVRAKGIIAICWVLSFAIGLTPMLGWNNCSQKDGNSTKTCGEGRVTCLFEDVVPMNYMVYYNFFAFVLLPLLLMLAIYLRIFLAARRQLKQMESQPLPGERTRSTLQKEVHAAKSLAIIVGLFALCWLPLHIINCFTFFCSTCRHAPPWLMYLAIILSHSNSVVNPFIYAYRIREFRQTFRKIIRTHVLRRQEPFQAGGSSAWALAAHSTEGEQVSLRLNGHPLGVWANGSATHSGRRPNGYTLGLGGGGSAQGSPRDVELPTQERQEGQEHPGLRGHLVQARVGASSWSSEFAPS
T5 sequence (P29274 whole entry): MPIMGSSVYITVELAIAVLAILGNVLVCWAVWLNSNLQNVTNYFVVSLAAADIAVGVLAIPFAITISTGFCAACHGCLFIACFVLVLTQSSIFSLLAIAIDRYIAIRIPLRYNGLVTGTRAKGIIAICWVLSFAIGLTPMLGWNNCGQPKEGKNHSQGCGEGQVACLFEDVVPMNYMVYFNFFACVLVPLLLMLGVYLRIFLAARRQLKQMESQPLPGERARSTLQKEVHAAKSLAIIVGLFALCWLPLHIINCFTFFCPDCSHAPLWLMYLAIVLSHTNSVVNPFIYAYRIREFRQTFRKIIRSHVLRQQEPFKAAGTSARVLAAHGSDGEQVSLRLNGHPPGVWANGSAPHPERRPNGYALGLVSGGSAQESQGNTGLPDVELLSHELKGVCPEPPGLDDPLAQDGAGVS

Row | Ratio IC50 [1] | IC50 [2] | IC50 [3] | Ki (Adenosine receptor A3 [5]) | Ki (Adenosine receptor A2b) | Ki (Adenosine receptor A2a [6]) | Ki (Adenosine receptor A1 [7]) | Ki (Adenosine receptor A2a [8]) | Ki (Adenosine receptor A1 [9]) | inhibition (INH) [10] | Ratio Ki (Homo sapiens [11]) | Ratio Ki (Homo sapiens [12]) | Ratio Ki (Homo sapiens [13]) | SMILES | other results
1 | 1.4 | 238 nM | 2020 nM | 115 nM | ≥ 1000 nM | 91.8 nM | 500 nM | 317 nM | 11.2 nM | – | – | – | – | COc1cccc(/C=C/CC(=O)Nc2nc3ccccc3c(=O)s2)c1 | Ratio Ki [4]: < 45
2 | 1.4 | 69.7 nM | 291 nM | > 1000 nM | 361 nM | 82.5 nM | 364 nM | 693 nM | 35.2 nM | Active | 4 | 12 | 4 | O=C(CCCc1ccccc1)Nc1nc2sccc2c(=O)s1 | –
3 | 1.4 | 17.6 nM | 42.7 nM | 390 nM | 365 nM | 80.9 nM | 1050 nM | 103 nM | 422 nM | Active | 13 | 5 | 5 | O=C(CCc1ccccc1)Nc1nc2ccccc2c(=O)s1 | –
4 | 400 | 1.63 nM | 661 nM | > 1000 nM | > 1000 nM | – | – | > 10000 nM | > 10000 nM | – | – | – | – | O=C(COc1cccc(Cl)c1)Nc1nc2ccccc2c(=O)s1 | Ratio IC50 [14]: 4
5 | 1.4 | > 1000 nM | 840 nM | > 1000 nM | > 1000 nM | – | 562 nM | ≥ 10000 nM | 11.4 nM | – | – | – | – | O=C(C/C=C/c1cccc(Cl)c1)Nc1nc2ccccc2c(=O)s1 | Ratio Ki [4]: < 45
6 | 1.4 | > 10000 nM | – | > 1000 nM | > 1000 nM | 44.3 nM | 4370 nM | 488 nM | – | – | 100 | > 22 | > 22 | O=C(Nc1nc2ccccc2c(=O)s1)c1ccc(C(=O)N2CCN(Cc3ccc(Cl)cc3)CC2)cc1 | –
7 | 1.4 | 34.9 nM | 186 nM | > 1000 nM | > 1000 nM | 39.5 nM | 2500 nM | 423 nM | 229 nM | Active | 63 | > 25 | > 25 | O=C(CCCc1ccccc1)Nc1nc2ccccc2c(=O)s1 | Stability [16]: Stable; inhibition (INH) [17]: Active; Activity (Adenosine receptor A2a [18]): Active; Activity (Adenosine receptor A2a [19]): Active
8 | 1.4 | 95.3 nM | 621 nM | 173 nM | 225 nM | 64.9 nM | 1370 nM | 294 nM | 367 nM | Active | 21 | 3 | 4 | COc1cccc(CCC(=O)Nc2nc3ccccc3c(=O)s2)c1 | Ratio Ki [20]: > 4
9 | – | – | 25.8 nM | – | – | – | – | – | – | Active | – | – | – | C[C@H](NCc1ccc(OCc2cccc(F)c2)cc1)C(N)=O [SAFINAMIDE] | –
10 | – | – | – | – | – | – | – | – | – | – | – | – | – | CCn1c(=O)c2c(nc(/C=C/c3ccc(OC)c(OC)c3)n2C)n(CC)c1=O [ISTRADEFYLLINE] | Ki (Adenosine receptor A1 [21]): 2830 nM; Ki (Adenosine receptor A3 [22]): > 3 µM

Row | SMILES | Ratio IC50 [1] | IC50 [2] | IC50 [3] | Ki (Adenosine receptor A3 [5]) | Ki (Adenosine receptor A2b) | Ki (Adenosine receptor A2a [6]) | Ki (Adenosine receptor A1 [7]) | Ki (Adenosine receptor A2a [8]) | Ki (Adenosine receptor A1 [9]) | inhibition (INH) [10] | Ratio Ki (Homo sapiens [11]) | Ratio Ki (Homo sapiens [12]) | Ratio Ki (Homo sapiens [13]) | other results
11 | Cn1c(=O)c2c(nc(/C=C/c3cccc(Cl)c3)n2C)n(C)c1=O | – | – | 38.5 nM | > 1000 nM | – | – | > 10000 nM | – | – | – | – | – | – | Stability [15]: Unstable
